Measurements reported in publication PMC4140855, “Production of an Attenuated Phenol-Soluble Modulin Variant Unique to the MRSA Clonal Complex 30 Increases Severity of Bloodstream Infection” (PLoS Pathogens, 2014).

How the values were obtained:
FPR1 = target: T1, FPR1 (Homo sapiens, UniProt P21462); experiment: Ca2+ flux in HL60 cells stably transfected with FPR1; assay type: cell-based
T1 construct: expressed in transfected cells; host or cells: HL60 cells, stably transfected
T1 sequence (P21462 1-350): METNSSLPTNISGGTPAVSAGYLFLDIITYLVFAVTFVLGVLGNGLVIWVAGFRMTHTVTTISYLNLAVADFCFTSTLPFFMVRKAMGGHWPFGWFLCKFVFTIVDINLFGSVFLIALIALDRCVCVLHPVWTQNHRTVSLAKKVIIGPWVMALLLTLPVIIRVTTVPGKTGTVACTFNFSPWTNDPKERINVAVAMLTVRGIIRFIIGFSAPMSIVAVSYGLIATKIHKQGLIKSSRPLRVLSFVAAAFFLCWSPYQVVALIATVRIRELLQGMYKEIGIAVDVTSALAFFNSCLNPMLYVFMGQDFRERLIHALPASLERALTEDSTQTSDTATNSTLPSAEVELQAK
Procedure: Next, we analyzed Ca^2+ flux as a general measure to test for neutrophil activation, as used in previous studies. HL60 cells stably transfected with different FPR receptor genes were used to determine which FPR receptors are differentially activated by PSMα3 versus PSMα3N22Y (Fig. 4A). […] At a peptide concentration of 100 nM, we observed a difference of ∼factor 2 in chemotactic activity comparing the two peptides when FPR1 recognition was inhibited by CHIPS, likely attributable to FPR2-mediated recognition. Owing to the overall ∼10 times lower capacity to stimulate FPR receptors other than FPR2, we observed no chemotaxis at that peptide concentration with addition of the FPR2 blocking agent FLIPr.
(A) Differential activation of FPRs by PSMα3 versus PSMα3N22Y was measured using synthetic peptides and Ca^2+ flux observed in HL60 cells stably transfected with the corresponding FPR genes as readout, using three biological and two technical replicates. The calculated Kd values are shown on the right. […] (B) Ca^2+ flux in human neutrophils upon addition of PSMα3 or PSMα3N22Y and inhibition by FLIPr (FPR2 inhibitor) or CHIPS (FPR1 inhibitor). […]
Human neutrophils were isolated from venous blood of healthy donors as described, [39]. Neutrophil chemotaxis and Ca^2+ flux were determined as previously described, [24]. […] Chemotaxis of neutrophils was determined using a transwell system (Costar) with analysis of neutrophil migration using fluorescence labeling. Calcium fluxes were monitored as a surrogate marker for chemotaxis since it can be measured more robustly and accurately than chemotaxis. For measurement of Ca^2+ fluxes, 5×10^6 neutrophils/ml were labeled with a fluorescent dye and analyzed with a FACScalibur (Becton Dickinson) as described. […] Measurements of 2,000 events were performed and Ca^2+ flux was expressed as relative fluorescence corrected for buffer controls. […] At the desired times, PMN lysis was determined by release of lactate dehydrogenase (LDH) (Cytotoxicity Detection Kit, Roche Applied Sciences).

human erythrocytes = experiment: Hemolysis; assay type: cell-based; details: synthetic peptides, 37°C, 1 h, 2% erythrocytes, OD 540 nm; 2 donors, triplicate; compared to PSMα3N22Y
Procedure: Figure 5 PSMα3N22Y has diminished cytolytic activities. (A) PMN lysis of synthetic PSMα3N22Y versus PSMα3. Data are from 2 donors, measured in triplicate each after incubation at 37°C for 1 h. […] (B) Hemolysis of synthetic PSMα3N22Y versus PSMα3. Data are from 2 donors, measured in triplicate, after incubation at 37°C for 1 h. (C, D) PMN lysis and hemolysis, respectively, of culture filtrates from PSMα3N22Y- versus PSMα3-producing strains when expressed on plasmids. pTXΔ16 is the empty control vector. The background strain in all constructs is a PSM-free USA300 strain (LACΔpsmαΔpsmβΔhld). Culture filtrates were diluted 1∶20 for the PMN lysis and 1∶2 for the hemolysis measurements. PMN lysis results are from two and hemolysis data from one donor, with three replicates measured each. (E) PMN lysis of culture filtrates from MRSA252 (252) versus 252*, in which the psmα3 gene (expressing PSMα3N22Y) on the genome was changed to express PSMα3 as present in all non-CC30 strains. […] Culture filtrates were diluted 1∶10. *, p<0.05 (paired t-test). […]
Hemolysis assays were performed according to Wang et al. Briefly, whole blood from humans was washed twice with ice-cold DPBS. […] After incubation at 37°C for 1 h, the plates were centrifuged at 233×g at 4°C for 5 min, supernatants were collected, and the optical density was measured at 540 nm.

Compound | Differential activation of FPR receptors by the two peptides (FPR1; Ca2+ flux, transfected HL60 cells, not FPR2 and FPR3) | Kd (FPR1; one site-binding model from Ca2+ flux, synthetic peptides, FPR1-transfected HL60 cells, three biological and two technical replicates, error = standard deviation) [µM] | Factor of difference in FPR1 Kd, PSMα3 versus PSMα3N22Y (FPR1; significant difference) | Cytolytic capacity toward human erythrocytes (human erythrocytes)
CSCC[C@H](NC=O)C(=O)N[C@@H](CCC(=O)O)C(=O)N[C@@H](Cc1ccccc1)C(=O)N[C@H](C(=O)N[C@@H](C)C(=O)N[C@@H](CCCCN)C(=O)N[C@@H](CC(C)C)C(=O)N[C@@H](Cc1ccccc1)C(=O)N[C@@H](CCCCN)C(=O)N[C@@H](Cc1ccccc1)C(=O)N[C@@H](Cc1ccccc1)C(=O)N[C@@H](CCCCN)C(=O)N[C@@H](CC(=O)O)C(=O)N[C@@H](CC(C)C)C(=O)N[C@@H](CC(C)C)C(=O)NCC(=O)N[C@@H](CCCCN)C(=O)N[C@@H](Cc1ccccc1)C(=O)N[C@@H](CC(C)C)C(=O)NCC(=O)N[C@@H](CC(N)=O)C(=O)N[C@@H](Cc1ccc(O)cc1)C(=O)O)C(C)C [PSMα3N22Y] | only FPR1 was activated differentially | 3.04 ± 0.682 | ~5 | 
CSCC[C@H](NC=O)C(=O)N[C@@H](CCC(=O)O)C(=O)N[C@@H](Cc1ccccc1)C(=O)N[C@H](C(=O)N[C@@H](C)C(=O)N[C@@H](CCCCN)C(=O)N[C@@H](CC(C)C)C(=O)N[C@@H](Cc1ccccc1)C(=O)N[C@@H](CCCCN)C(=O)N[C@@H](Cc1ccccc1)C(=O)N[C@@H](Cc1ccccc1)C(=O)N[C@@H](CCCCN)C(=O)N[C@@H](CC(=O)O)C(=O)N[C@@H](CC(C)C)C(=O)N[C@@H](CC(C)C)C(=O)NCC(=O)N[C@@H](CCCCN)C(=O)N[C@@H](Cc1ccccc1)C(=O)N[C@@H](CC(C)C)C(=O)NCC(=O)N[C@@H](CC(N)=O)C(=O)N[C@@H](CC(N)=O)C(=O)O)C(C)C [PSMα3] |  |  |  | significantly higher cytolytic capacities
